Results published in patent US8247211B2, “Glycopeptide antibiotics” (American Cyanamid Company, priority 2001, dated 2012).
Converted amounts (≈) assume the structure as drawn.

What was measured:
Experiment in all cases: In vitro antibacterial evaluation: minimum inhibitory concentration (MIC), broth dilution method
Format in all cases: cell-based
[1] = test system: Escherichia coli; conditions: 18 hours at 35° C.
Procedure, shortened: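 Using Muller-Hinton II […] and an inoculum of 5×10^5 CFU/mL, antibiotic dilutions from 64 down to 0.06 μg/mL were tested following NCCLS M7-A2. The MIC is the lowest concentration inhibiting growth, including in methicillin-, penicillin- or vancomycin-resistant clinical isolates.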

[2] = test system: Staphylococcus sp.; conditions: for MIC Staphylococcus aureus (ATCC 29213): strain ATCC 29213; for MIC Staphylococcus aureus (GC 1131): strain GC 1131; for MIC Staphylococcus aureus (GC 3051): strain GC 3051; for MIC Staphylococcus aureus (GC 3053): strain GC 3053; for MIC Staphylococcus aureus (GC 4541): strain GC 4541; for MIC Staphylococcus aureus (GC 4542): strain GC 4542; for MIC Staphylococcus aureus-SMITH (GC 4543): strain GC 4543; for MIC Staphylococcus aureus (GC 4544): strain GC 4544; for MIC Staphylococcus aureus (GC 4545): strain GC 4545; for MIC Staphylococcus haemolyticus (GC 4546): strain GC 4546; for MIC Coagulase Negative Staphylococcus (GC 4547): strain GC 4547; for MIC Coagulase Negative Staphylococcus (GC 4548): strain GC 4548; for MIC Coagulase Negative Staphylococcus (GC 4549): strain GC 4549; for MIC Coagulase Negative Staphylococcus (GC 4551): strain GC 4551; for MIC Coagulase Negative Staphylococcus (GC 6257): strain GC 6257
Procedure, shortened: (§1)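 MIC read as lowest drug level preventing visible growth. Organisms at 5×10^5 CFU/mL were exposed to a 64-0.06 μg/mL dilution series in Muller-Hinton II […] following NCCLS broth dilution standard M7-A2.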

[3] = test system: Enterococcus sp.; conditions: 18 hours at 35° C.
Procedure, shortened: as §1

[4] = test system: Streptococcus sp.; conditions: 18 hours at 35° C.
Procedure, shortened: as §1

[5] = Enterococcus faecalis (ATCC 29212)
[6] = Enterococcus faecalis (GC 2242)
[7] = Enterococcus faecalis (GC 2691)
[8] = Enterococcus faecalis (GC 3059)
[9] = Enterococcus faecalis (GC 4552)
[10] = Enterococcus faecalis (GC 4553)
[11] = Enterococcus faecalis (GC 4554)
[12] = Enterococcus faecalis (GC 6189)
[13] = broth dilution, inoculum 5×10^5 CFU/mL
[14] = Streptococcus agalactiae (GC 4564)
[15] = Streptococcus pneumoniae (ATCC 6301)
[16] = Streptococcus pneumoniae (GC 1894)
[17] = Streptococcus pneumoniae (GC 4565)
[18] = Streptococcus pyogenes (GC 4563)

CC(c1ccc(Cl)cc1)C1NC(=O)CNC(=O)C(CO)NC(=O)C(C(O)C2CNC(=N)N2C2OC(CO)C(O)C(O)C2O)NC(=O)C(C(O)C2CNC(=N)N2)NC(=O)C(Cc2ccc(OC3OC(CO)C(OC4OC5COC(C6CCCCC6)OC5C(O)C4O)C(O)C3O)cc2)NC1=O (stereo not drawn) [Example 193]
MIC Escherichia coli (GC 4559) [1]: 32 mg/L (≈ 22.5 µM)
MIC Escherichia coli (GC 4560) [1]: 2 mg/L (≈ 1.4 µM)
MIC Staphylococcus aureus (ATCC 29213) [2]: 0.5 mg/L (≈ 0.351 µM)
MIC Staphylococcus aureus (GC 1131) [2]: 1 mg/L (≈ 0.702 µM)
MIC Staphylococcus aureus (GC 3051) [2]: 1 mg/L (≈ 0.702 µM)
MIC Staphylococcus aureus (GC 3053) [2]: 0.5 mg/L (≈ 0.351 µM)
MIC Staphylococcus aureus (GC 4541) [2]: 0.5 mg/L (≈ 0.351 µM)
MIC Staphylococcus aureus (GC 4542) [2]: 0.25 mg/L (≈ 0.176 µM)
MIC Staphylococcus aureus-SMITH (GC 4543) [2]: 0.5 mg/L (≈ 0.351 µM)
MIC Staphylococcus aureus (GC 4544) [2]: 1 mg/L (≈ 0.702 µM)
MIC Staphylococcus aureus (GC 4545) [2]: 0.5 mg/L (≈ 0.351 µM)
MIC Staphylococcus haemolyticus (GC 4546) [2]: 0.5 mg/L (≈ 0.351 µM)
MIC Coagulase Negative Staphylococcus (GC 4547) [2]: 1 mg/L (≈ 0.702 µM)
MIC Coagulase Negative Staphylococcus (GC 4548) [2]: 0.25 mg/L (≈ 0.176 µM)
MIC Coagulase Negative Staphylococcus (GC 4549) [2]: 0.25 mg/L (≈ 0.176 µM)
MIC Coagulase Negative Staphylococcus (GC 4551) [2]: 0.5 mg/L (≈ 0.351 µM)
MIC Coagulase Negative Staphylococcus (GC 6257) [2]: 0.25 mg/L (≈ 0.176 µM)
MIC Enterococcus avium (GC 4558) ([3]; Enterococcus avium (GC 4558)): 2 mg/L (≈ 1.4 µM)
MIC Enterococcus faecalis (ATCC 29212) [3, 5]: 1 mg/L (≈ 0.702 µM)
MIC Enterococcus faecalis (GC 2242) [3, 6]: 1 mg/L (≈ 0.702 µM)
MIC Enterococcus faecalis (GC 2691) [3, 7]: 2 mg/L (≈ 1.4 µM)
MIC Enterococcus faecalis (GC 3059) [3, 8]: 1 mg/L (≈ 0.702 µM)
MIC Enterococcus faecalis (GC 4552) [3, 9]: 1 mg/L (≈ 0.702 µM)
MIC Enterococcus faecalis (GC 4553) [3, 10]: 2 mg/L (≈ 1.4 µM)
MIC Enterococcus faecalis (GC 4554) [3, 11]: 2 mg/L (≈ 1.4 µM)
MIC Enterococcus faecalis (GC 6189) [3, 12]: 0.5 mg/L (≈ 0.351 µM)
MIC Enterococcus faecium (GC 2243) ([3]; Enterococcus faecium (GC 2243)): 1 mg/L (≈ 0.702 µM)
MIC Enterococcus faecium (GC 4556) ([3]; Enterococcus faecium (GC 4556)): 1 mg/L (≈ 0.702 µM)
MIC Enterococcus faecium (GC 4557) ([3]; Enterococcus faecium (GC 4557)): 2 mg/L (≈ 1.4 µM)
MIC Enterococcus avium (GC 4558) [3, 13]: 2 mg/L (≈ 1.4 µM)
MIC Enterococcus faecalis (ATCC 29212) [3, 13]: 1 mg/L (≈ 0.702 µM)
MIC Enterococcus faecalis (GC 2242) [3, 13]: 1 mg/L (≈ 0.702 µM)
MIC Enterococcus faecalis (GC 2691) [3, 13]: 2 mg/L (≈ 1.4 µM)
MIC Enterococcus faecalis (GC 3059) [3, 13]: 1 mg/L (≈ 0.702 µM)
MIC Enterococcus faecalis (GC 4552) [3, 13]: 1 mg/L (≈ 0.702 µM)
MIC Enterococcus faecalis (GC 4553) [3, 13]: 2 mg/L (≈ 1.4 µM)
MIC Enterococcus faecalis (GC 4554) [3, 13]: 2 mg/L (≈ 1.4 µM)
MIC Enterococcus faecalis (GC 6189) [3, 13]: 0.5 mg/L (≈ 0.351 µM)
MIC Enterococcus faecium (GC 2243) [3, 13]: 1 mg/L (≈ 0.702 µM)
MIC Enterococcus faecium (GC 4556) [3, 13]: 1 mg/L (≈ 0.702 µM)
MIC Enterococcus faecium (GC 4557) [3, 13]: 2 mg/L (≈ 1.4 µM)
MIC Streptococcus agalactiae (GC 4564) [4, 14]: <0.06 mg/L
MIC Streptococcus pneumoniae (ATCC 6301) [4, 15]: 0.12 mg/L (≈ 0.0843 µM)
MIC Streptococcus pneumoniae (GC 1894) [4, 16]: <0.06 mg/L
MIC Streptococcus pneumoniae (GC 4565) [4, 17]: <0.06 mg/L
MIC Streptococcus pyogenes (GC 4563) [4, 18]: <0.06 mg/L
MIC Streptococcus agalactiae (GC 4564) [4, 13]: <0.06 mg/L
MIC Streptococcus pneumoniae (ATCC 6301) [4, 13]: 0.12 mg/L (≈ 0.0843 µM)
MIC Streptococcus pneumoniae (GC 1894) [4, 13]: <0.06 mg/L
MIC Streptococcus pneumoniae (GC 4565) [4, 13]: <0.06 mg/L
MIC Streptococcus pyogenes (GC 4563) [4, 13]: <0.06 mg/L

CCCC(C)C1OCC2OC(OC3C(CO)OC(Oc4ccc(CC5NC(=O)C(C(C)c6ccc(Cl)cc6)NC(=O)CNC(=O)C(CO)NC(=O)C(C(O)C6CNC(=N)N6C6OC(CO)C(O)C(O)C6O)NC(=O)C(C(O)C6CNC(=N)N6)NC5=O)cc4)C(O)C3O)C(O)C(O)C2O1 (stereo not drawn) [Example 194, Cyclo[glycyl-4-chloro-β-methylphenylalanyl-O-[4-O-[4,6-O-(2-methylpentylidene)hexopyranosyl]hexopyranosyl]tyrosyl-3-(2-iminoimidazolidin-4-yl)seryl-3-(3-hexopyranosyl-2-iminoimidazolidin-4-yl)serylseryl]]
MIC Escherichia coli (GC 4559) [1]: 32 mg/L (≈ 22.7 µM)
MIC Escherichia coli (GC 4560) [1]: 2 mg/L (≈ 1.42 µM)
MIC Staphylococcus aureus (ATCC 29213) [2]: 0.5 mg/L (≈ 0.354 µM)
MIC Staphylococcus aureus (GC 1131) [2]: 1 mg/L (≈ 0.708 µM)
MIC Staphylococcus aureus (GC 3051) [2]: 1 mg/L (≈ 0.708 µM)
MIC Staphylococcus aureus (GC 3053) [2]: 1 mg/L (≈ 0.708 µM)
MIC Staphylococcus aureus (GC 4541) [2]: 0.5 mg/L (≈ 0.354 µM)
MIC Staphylococcus aureus (GC 4542) [2]: 0.5 mg/L (≈ 0.354 µM)
MIC Staphylococcus aureus-SMITH (GC 4543) [2]: 0.5 mg/L (≈ 0.354 µM)
MIC Staphylococcus aureus (GC 4544) [2]: 2 mg/L (≈ 1.42 µM)
MIC Staphylococcus aureus (GC 4545) [2]: 1 mg/L (≈ 0.708 µM)
MIC Staphylococcus haemolyticus (GC 4546) [2]: 0.5 mg/L (≈ 0.354 µM)
MIC Coagulase Negative Staphylococcus (GC 4547) [2]: 1 mg/L (≈ 0.708 µM)
MIC Coagulase Negative Staphylococcus (GC 4548) [2]: 0.5 mg/L (≈ 0.354 µM)
MIC Coagulase Negative Staphylococcus (GC 4549) [2]: 0.5 mg/L (≈ 0.354 µM)
MIC Coagulase Negative Staphylococcus (GC 4551) [2]: 1 mg/L (≈ 0.708 µM)
MIC Coagulase Negative Staphylococcus (GC 6257) [2]: 0.5 mg/L (≈ 0.354 µM)
MIC Enterococcus avium (GC 4558) ([3]; Enterococcus avium (GC 4558)): 2 mg/L (≈ 1.42 µM)
MIC Enterococcus faecalis (ATCC 29212) [3, 5]: 2 mg/L (≈ 1.42 µM)
MIC Enterococcus faecalis (GC 2242) [3, 6]: 1 mg/L (≈ 0.708 µM)
MIC Enterococcus faecalis (GC 2691) [3, 7]: 2 mg/L (≈ 1.42 µM)
MIC Enterococcus faecalis (GC 3059) [3, 8]: 1 mg/L (≈ 0.708 µM)
MIC Enterococcus faecalis (GC 4552) [3, 9]: 1 mg/L (≈ 0.708 µM)
MIC Enterococcus faecalis (GC 4553) [3, 10]: 2 mg/L (≈ 1.42 µM)
MIC Enterococcus faecalis (GC 4554) [3, 11]: 1 mg/L (≈ 0.708 µM)
MIC Enterococcus faecalis (GC 6189) [3, 12]: 0.5 mg/L (≈ 0.354 µM)
MIC Enterococcus faecium (GC 2243) ([3]; Enterococcus faecium (GC 2243)): 1 mg/L (≈ 0.708 µM)
MIC Enterococcus faecium (GC 4556) ([3]; Enterococcus faecium (GC 4556)): 1 mg/L (≈ 0.708 µM)
MIC Enterococcus faecium (GC 4557) ([3]; Enterococcus faecium (GC 4557)): 2 mg/L (≈ 1.42 µM)
MIC Enterococcus avium (GC 4558) [3, 13]: 2 mg/L (≈ 1.42 µM)
MIC Enterococcus faecalis (ATCC 29212) [3, 13]: 2 mg/L (≈ 1.42 µM)
MIC Enterococcus faecalis (GC 2242) [3, 13]: 1 mg/L (≈ 0.708 µM)
MIC Enterococcus faecalis (GC 2691) [3, 13]: 2 mg/L (≈ 1.42 µM)
MIC Enterococcus faecalis (GC 3059) [3, 13]: 1 mg/L (≈ 0.708 µM)
MIC Enterococcus faecalis (GC 4552) [3, 13]: 1 mg/L (≈ 0.708 µM)
MIC Enterococcus faecalis (GC 4553) [3, 13]: 2 mg/L (≈ 1.42 µM)
MIC Enterococcus faecalis (GC 4554) [3, 13]: 1 mg/L (≈ 0.708 µM)
MIC Enterococcus faecalis (GC 6189) [3, 13]: 0.5 mg/L (≈ 0.354 µM)
MIC Enterococcus faecium (GC 2243) [3, 13]: 1 mg/L (≈ 0.708 µM)
MIC Enterococcus faecium (GC 4556) [3, 13]: 1 mg/L (≈ 0.708 µM)
MIC Enterococcus faecium (GC 4557) [3, 13]: 2 mg/L (≈ 1.42 µM)
MIC Streptococcus agalactiae (GC 4564) [4, 14]: <0.06 mg/L
MIC Streptococcus pneumoniae (ATCC 6301) [4, 15]: 0.25 mg/L (≈ 0.177 µM)
MIC Streptococcus pneumoniae (GC 1894) [4, 16]: 0.12 mg/L (≈ 0.085 µM)
MIC Streptococcus pneumoniae (GC 4565) [4, 17]: <0.06 mg/L
MIC Streptococcus pyogenes (GC 4563) [4, 18]: <0.06 mg/L
MIC Streptococcus agalactiae (GC 4564) [4, 13]: <0.06 mg/L
MIC Streptococcus pneumoniae (ATCC 6301) [4, 13]: 0.25 mg/L (≈ 0.177 µM)
MIC Streptococcus pneumoniae (GC 1894) [4, 13]: 0.12 mg/L (≈ 0.085 µM)
MIC Streptococcus pneumoniae (GC 4565) [4, 13]: <0.06 mg/L
MIC Streptococcus pyogenes (GC 4563) [4, 13]: <0.06 mg/L
